Read-outs that look alike come from different tables or passages of the source.
Columns and labels:
[1] = test system: Mycosphaerella graminicola; anamorph: Septoria tritici; Bayer code SEPTTR; test: Fungicidal activity: leaf blotch of wheat, greenhouse wheat plants (variety Yuma), percent disease control; assay type: in vivo; conditions: Zymoseptoria tritici
Experimental: Evaluation of Fungicidal Activity: Leaf Blotch of Wheat (Mycosphaerella graminicola; anamorph: Septoria tritici; Bayer code SEPTTR)
Wheat plants (variety Yuma) were grown from seed in a greenhouse in 50% mineral soil/50% soil-less Metro mix until the first leaf was fully emerged, with 7-10 seedlings per pot. These plants were inoculated with an aqueous spore suspension of Septoria tritici either prior to or after fungicide treatments. After inoculation the plants were kept in 100% relative humidity (one day in a dark dew chamber followed by two to three days in a lighted dew chamber) to permit spores to germinate and infect the leaf. The plants were then transferred to a greenhouse for disease to develop.
The effectiveness of the test compounds in controlling disease was determined by assessing the severity of disease on treated plants, then converting the severity to percent control based on the level of disease on untreated, inoculated plants. • In each case of Table II the rating scale is as follows: […]

[2] = 24 h, One-Day Protectant (1DP), 100 ppm, wheat plants, read-out: SEPTTR 100 PPM 1DP (% Disease Control rating)
[3] = 72 h, Three-Day Curative (3DC), 100 ppm, wheat plants, read-out: SEPTTR 100 PPM 3DC (% Disease Control rating)
[4] = 24 h, read-out: SEPTTR 100 PPM 1DP (% Disease Control rating)
[5] = 72 h, read-out: SEPTTR 100 PPM 3DC (% Disease Control rating)

Row | Structure (SMILES) | pest or weed control at 100 ppm [1, 2] [%] | pest or weed control at 100 ppm [1, 3] [%] | melting point | pest or weed control at 100 ppm [1, 4] [%] | pest or weed control at 100 ppm [1, 5] [%]
1 | CN(C)CNc1nc(=O)n(CN(C)C)cc1F [Compound 3] | 76 to 100 | 76 to 100 | 157 to 187 °C (dec.) | – | –
2 | CN(C)/C=N/c1nc(=O)n(Cc2ccccc2)cc1F [Compound 6] | 0 to 25 | 0 to 25 | 186 to 188 °C | – | –
3 | Cc1ccc(Cn2cc(F)c(/N=C/N(C)C)nc2=O)cc1 [Compound 7] | 0 to 25 | 0 to 25 | 178 to 179 °C | – | –
4 | CC(C)COC(=O)Nc1nc(=O)n(C)cc1F [Compound 10, (5-fluoro-1-methyl-2-oxo-1,2-dihydropyrimidin-4-yl)carbamic acid isobutyl ester] | – | – | 126 to 128 °C | 26 to 50 | 51 to 75
5 | CCCC(=O)OCn1cc(F)c(/N=C/N(C)C)nc1=O [Compound 13] | 76 to 100 | 76 to 100 | 109 to 111 °C | – | –
6 | Nc1nc(=O)n(COCc2ccccc2)cc1F [Compound 14, 4-amino-1-(benzyloxymethyl)-5-fluoropyrimidin-2(1H)-one] | 0 to 25 | 0 to 25 | 213 to 217 °C | – | –
7 | COCCOCn1cc(F)c(N)nc1=O [Compound 16] | 0 to 25 | 0 to 25 | 160 to 163 °C | – | –
8 | C[Si](C)(C)CCOCn1cc(F)c(N)nc1=O [Compound 17] | 51 to 75 | 76 to 100 | 187 to 192 °C | – | –
9 | CCCCCCCCOCn1cc(F)c(N)nc1=O [Compound 18] | 26 to 50 | 51 to 75 | 166 to 170 °C | – | –
10 | Nc1nc(=O)n(COc2ccc(Cl)cc2)cc1F [Compound 19] | 26 to 50 | 0 to 25 | 240 to 245 °C | – | –
11 | CCOC(=O)C(OCC)n1cc(F)c(N)nc1=O (centres unmarked) [Compound 20] | 0 to 25 | 0 to 25 | 150 to 154 °C | – | –
12 | CCCC(=O)OCn1cc(F)c(N)nc1=O [Compound 21] | 76 to 100 | 76 to 100 | 210 to 214 °C | – | –
13 | CC(C)(C)C(=O)OCn1cc(F)c(N)nc1=O [Compound 22] | 76 to 100 | 76 to 100 | 259 to 264 °C | – | –
14 | CCOC(=O)OC(C)n1cc(F)c(N)nc1=O (centres unmarked) [Compound 23] | 76 to 100 | 76 to 100 | 162 to 166 °C | – | –
15 | CSCn1cc(F)c(/N=C/N(C)C)nc1=O [Compound 24, N′-(5-fluoro-1-methylsulfanylmethyl-2-oxo-1,2-dihydropyrimidin-4-yl)-N,N-dimethylformamidine] | – | – | 132 to 136 °C | 76 to 100 | 76 to 100
16 | Nc1nc(=O)n(CCCCI)cc1F [Compound 26, 4-amino-5-fluoro-1-(4-iodobutyl)-1H-pyrimidin-2-one] | – | – | 181 to 184 °C | 0 to 25 | 26 to 50
17 | Nc1nc(=O)n(CCCCn2cncn2)cc1F [Compound 27, 4-amino-5-fluoro-1-(4-[1,2,4]triazol-1-yl-butyl)-1H-pyrimidin-2-one] | 0 to 25 | 0 to 25 | 197 to 200 °C | – | –
18 | Cn1cc(F)c(N)nc1=O [Compound 28, 4-amino-5-fluoro-1-methylpyrimidin-2(1H)-one] | 51 to 75 | 76 to 100 | 195 °C (dec.) | – | –
19 | CCn1cc(F)c(N)nc1=O [Compound 29] | 51 to 75 | 76 to 100 | 279 °C (dec.) | – | –
20 | COc1ccc(CCn2cc(F)c(N)nc2=O)cc1 [Compound 30] | 0 to 25 | 76 to 100 | 168 to 189 °C | – | –

Row | Structure (SMILES) | pest or weed control at 100 ppm [1, 2] [%] | pest or weed control at 100 ppm [1, 3] [%] | melting point | pest or weed control at 100 ppm [1, 4] [%] | pest or weed control at 100 ppm [1, 5] [%]
21 | Nc1nc(=O)n(CCc2ccc(Cl)cc2)cc1F [Compound 31] | 0 to 25 | 76 to 100 | 252 to 254 °C | – | –
22 | Nc1nc(=O)n(CC2CCOC2)cc1F (centres unmarked) [Compound 32] | 76 to 100 | 76 to 100 | 255 °C (dec.) | – | –
23 | Nc1nc(=O)n(Cc2ccc(F)cc2F)cc1F [Compound 33] | 0 to 25 | 51 to 75 | 250 to 254 °C | – | –
24 | CCn1cc(F)c(/N=C/N(C)C)nc1=O [Compound 34, (E)-N′-(1-ethyl-5-fluoro-2-oxo-1,2-dihydropyrimidin-4-yl)-N,N-dimethylformimidamide] | 76 to 100 | 76 to 100 | 157 to 160 °C | – | –
25 | CN(C)/C=N/c1nc(=O)n(Cc2ccc(F)c(F)c2)cc1F [Compound 35] | 51 to 75 | 51 to 75 | 196 to 200 °C | – | –
26 | CCOC(=O)Cn1cc(F)c(/N=C/N(C)C)nc1=O [Compound 36] | 51 to 75 | 26 to 50 | 196 to 199 °C | – | –
27 | Nc1nc(=O)n(-c2ccsc2)cc1F [Compound 39, 4-amino-5-fluoro-1-(thiophen-3-yl)pyrimidin-2(1H)-one] | – | – | 228 to 229 °C | 0 to 25 | 76 to 100
28 | COc1ccc(-n2cc(F)c(N)nc2=O)cc1OC [Compound 40] | 0 to 25 | 0 to 25 | 244.8 to 245.6 °C | – | –
29 | C=Cn1cc(F)c(N)nc1=O [Compound 41] | 76 to 100 | 76 to 100 | 213.5 to 214.4 °C | – | –
30 | Cc1ccc(-n2cc(F)c(N)nc2=O)cc1 [Compound 43] | 26 to 50 | 0 to 25 | 225 to 227 °C | – | –
31 | N#Cc1cccc(-n2cc(F)c(N)nc2=O)c1 [Compound 46] | 0 to 25 | 0 to 25 | 175 to 178 °C | – | –
32 | Nc1nc(=O)n(-c2ccc3c(c2)OCO3)cc1F [Compound 47] | 26 to 50 | 0 to 25 | 275 to 279 °C | – | –
33 | CN(C)/C=N/c1nc(=O)n(-c2ccsc2)cc1F [Compound 56, (E)-N′-(5-fluoro-2-oxo-1-(thiophen-3-yl)-1,2-dihydropyrimidin-4-yl)-N,N-dimethylformimidamide] | 26 to 50 | 51 to 75 | 211 to 213 °C | – | –
34 | COc1ccc(-n2cc(F)c(/N=C/N(C)C)nc2=O)cc1OC [Compound 57] | 0 to 25 | 0 to 25 | 196.1 to 198 °C | – | –
35 | C=Cn1cc(F)c(/N=C/N(C)C)nc1=O [Compound 58] | 76 to 100 | 76 to 100 | 179.6 to 181.3 °C | – | –
36 | CSCn1cc(F)c(N)nc1=O [Compound 79] | – | – | 128.5 to 130.6 °C | – | –
37 | CCOC(=O)Nc1nc(=O)n(CSC)cc1F [Compound 84] | – | – | 137.1 to 138.8 °C | – | –
38 | CCOCCn1cc(F)c(NC(=O)c2cccs2)nc1=O [Compound 100] | – | – | 109 to 110.4 °C | – | –
39 | CCOCCn1cc(F)c(NC(=O)c2ccccc2F)nc1=O [Compound 101] | – | – | 116.8 to 117.8 °C | – | –
40 | CCNc1nc(=O)n(CCOCC)cc1F [Compound 108] | – | – | 63 to 65 °C | – | –

From patent US8916579B2, “5-fluoropyrimidinone derivatives” (Dow AgroSciences, LLC., priority 2009, dated 2014)
